Molecular target: T1, TwKO (Tripterygium wilfordii, UniProt A0A2S0H3R9)
T1 construct: full-length ORF co-expressed from pESC-Leu with a TwCPR (all four tested, TwCPR3 best) in Saccharomyces cerevisiae BY-T20; with NADPH--cytochrome P450 reductase 3
Assay: GC-MS of methylated yeast culture extracts
Format: cell-based
Conditions: co-expressed TwCPR; substrate made in vivo by TwCPS3/TwKSL2:A608M; product ent-kaurenoic acid; 30 °C

T1 sequence (A0A2S0H3R9 1-509): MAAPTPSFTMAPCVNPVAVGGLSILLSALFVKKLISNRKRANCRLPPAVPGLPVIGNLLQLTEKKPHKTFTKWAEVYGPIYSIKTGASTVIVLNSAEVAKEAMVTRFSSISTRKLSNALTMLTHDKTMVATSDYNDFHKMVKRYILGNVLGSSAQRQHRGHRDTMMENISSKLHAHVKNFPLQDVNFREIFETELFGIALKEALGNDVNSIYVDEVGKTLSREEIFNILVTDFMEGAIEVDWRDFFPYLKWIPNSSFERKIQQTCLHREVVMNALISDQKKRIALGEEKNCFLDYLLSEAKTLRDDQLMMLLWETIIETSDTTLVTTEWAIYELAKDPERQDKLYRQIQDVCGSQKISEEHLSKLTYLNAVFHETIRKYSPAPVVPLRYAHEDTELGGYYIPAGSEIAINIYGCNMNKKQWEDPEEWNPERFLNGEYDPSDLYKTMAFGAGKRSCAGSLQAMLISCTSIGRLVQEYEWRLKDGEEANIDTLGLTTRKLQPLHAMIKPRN
T1 sequence (A0A808MGE5 1-690 partner): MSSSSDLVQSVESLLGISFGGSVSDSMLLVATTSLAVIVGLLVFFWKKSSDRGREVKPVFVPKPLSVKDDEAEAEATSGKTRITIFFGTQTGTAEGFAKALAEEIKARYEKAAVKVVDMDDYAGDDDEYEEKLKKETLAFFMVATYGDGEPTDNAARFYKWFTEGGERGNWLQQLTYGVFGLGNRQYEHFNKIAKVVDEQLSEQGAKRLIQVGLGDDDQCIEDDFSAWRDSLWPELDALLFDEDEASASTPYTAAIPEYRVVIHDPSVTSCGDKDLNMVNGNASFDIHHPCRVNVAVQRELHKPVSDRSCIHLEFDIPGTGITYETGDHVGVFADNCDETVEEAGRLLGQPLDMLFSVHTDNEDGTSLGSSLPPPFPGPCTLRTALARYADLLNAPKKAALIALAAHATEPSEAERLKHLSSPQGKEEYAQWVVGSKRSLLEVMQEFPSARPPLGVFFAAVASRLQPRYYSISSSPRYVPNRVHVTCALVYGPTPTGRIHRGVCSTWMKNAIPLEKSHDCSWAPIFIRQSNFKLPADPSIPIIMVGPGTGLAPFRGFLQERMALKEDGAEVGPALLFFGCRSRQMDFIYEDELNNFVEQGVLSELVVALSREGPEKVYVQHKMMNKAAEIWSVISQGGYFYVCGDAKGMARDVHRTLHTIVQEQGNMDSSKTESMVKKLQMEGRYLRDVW

Compound: C=C1C[C@@]23CC[C@@H]4C(C)(C)CCC[C@@]4(C)[C@@H]2CC[C@@H]1C3 [ent-kaurene]
- GC-MS of methylated yeast culture extracts: three-stage oxidation of ent-kaurene to ent-kaurenoic acid

Reference: paper PMC5645531, “Probing the Single Key Amino Acid Responsible for the Novel Catalytic Function of ent-Kaurene Oxidase Supported by NADPH-Cytochrome P450 Reductases in Tripterygium wilfordii” (Frontiers in Plant Science, 2017)
